{"source": "patent US20070014833A1", "about": "“Treatment of eye disorders with sirtuin modulators” (priority 2005, published 2007)", "key": {"optic neuritis / EAE": {"tested_on": "optic neuritis / EAE", "experiment": "Incidence of optic neuritis (optic nerve histology, H & E) and clinical EAE score in PLP-immunized mice", "format": "in vivo, SJL/J mice"}, "[1]": {"tested_on": "retinal ganglion cells (RGCs)", "experiment": "Retinal ganglion cell (RGC) counts in EAE mice with acute optic neuritis, intravitreal treatment", "settings": "for RGC loss: EAE eyes with optic neuritis", "experimental": "Study outline: The neuroprotective effects of nicotinamide riboside were examined in EAE mice with optic neuritis. […] To induce EAE, mice were immunized several days later with 300 μg PLP emulsified in complete Freund's adjuvant (CFA), and control mice (without EAE) were mock-immunized with phosphate buffered saline (PBS) in CFA. All mice received 200 ng intraperitoneal pertussis toxin (PT) on the day of immunization (day 0) and again on day 2.\nEyes were treated with nicotinamide riboside by intravitreal (ivt) injections with a volume of 0.8 μl/injection of a stock solution of either 0.1 M or 0.4 M nicotinamide riboside in PBS (Groups 2, 4 and 5). […] Treament with nicotinamide riboside, as well as PBS control injections, were given ivt on days 0, 4, 7 and 11. Mice were scored daily for clinical EAE, and were sacrificed on day 14 by overdose with ketamine and xylazine.\nRetinas were dissected and whole-mounted for fluorescent microscopy. RGC numbers were quantified by counting FG-labeled cells in 12 standardized fields in each retina. Optic nerves were dissected and processed for histology. Cut sections stained by H & E were evaluated for the presence of inflammatory cells to determine acute optic neuritis. RGCs were compared between PBS-treated and nicotinamide riboside-treated eyes with optic neuritis to determine whether nicotinamide riboside prevents loss of neurons."}}, "data": [{"smiles": "NC(=O)c1ccc[n+]([C@@H]2O[C@H](CO)[C@@H](O)[C@H]2O)c1", "note": "[nicotinamide riboside]", "values": [{"measurement": "Inflammatory cell infiltration", "setting": "optic neuritis / EAE; optic nerve", "value": "does not prevent"}, {"measurement": "Clinical EAE", "setting": "optic neuritis / EAE; treated mice vs controls", "value": "did not differ"}, {"measurement": "Incidence of optic neuritis", "setting": "optic neuritis / EAE; treated mice vs controls", "value": "did not differ"}, {"measurement": "Preserving RGCs in an acute optic neuritis model (FIG. 19)", "setting": "[1]", "value": "effective"}, {"measurement": "RGC loss", "setting": "[1]; 100 mM treatment (Group 4) vs PBS-treated (Group 3)", "value": "reduced"}, {"measurement": "RGC loss", "setting": "[1]; 400 mM treatment (Group 5) vs PBS-treated (Group 3)", "value": "completely blocked"}, {"measurement": "Neuroprotection of RGCs during acute optic neuritis in EAE", "setting": "[1]; dose-dependent manner", "value": "neuroprotective"}, {"measurement": "Toxicity to RGCs", "setting": "[1]; mouse, in vivo", "value": "not toxic"}, {"measurement": "RGC numbers, non-EAE eyes treated vs control eyes", "setting": "[1]; non-EAE eyes, Group 2 vs Group 1", "value": "no difference"}]}]}
